Measured values from BindingDB's records for PubMed 34286973 (University of Chinese Academy of Sciences, 2021).

Target: E3 ubiquitin-protein ligase Mdm2 (Homo sapiens, UniProt Q00987)
Assay: Binding affinity to human MDM2 assessed as dissociation constant

Sequence of E3 ubiquitin-protein ligase Mdm2 (Q00987 whole entry): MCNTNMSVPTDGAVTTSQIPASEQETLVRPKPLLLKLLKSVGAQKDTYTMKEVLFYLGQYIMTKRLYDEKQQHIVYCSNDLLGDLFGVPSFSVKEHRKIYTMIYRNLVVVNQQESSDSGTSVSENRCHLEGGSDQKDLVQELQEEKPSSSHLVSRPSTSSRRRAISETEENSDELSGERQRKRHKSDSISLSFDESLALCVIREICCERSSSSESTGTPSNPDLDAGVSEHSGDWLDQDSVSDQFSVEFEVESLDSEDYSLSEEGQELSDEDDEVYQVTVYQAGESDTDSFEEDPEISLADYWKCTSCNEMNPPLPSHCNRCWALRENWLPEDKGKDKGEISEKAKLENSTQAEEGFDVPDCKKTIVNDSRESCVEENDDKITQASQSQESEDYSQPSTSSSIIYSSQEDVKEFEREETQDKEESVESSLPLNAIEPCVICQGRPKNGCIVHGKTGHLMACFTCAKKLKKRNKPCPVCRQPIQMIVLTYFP

`O=C(CN(Cc1ccc(Cl)cc1)C(=O)c1cc2ccccc2[nH]1)NC1CCCCC1` was tested, and the Ki was 54 µM.
